Test results as given in patent US8076487B2, “Pyridone derivative and herbicide” (Kumiai Chemical Industry Co., Ltd., priority 2006, dated 2011).

How the values were obtained:
Type in all cases: in vivo
[1] = system: early watergrass (Echinochloa oryzicola Vasing); test: Test Example 1: herbicidal effect by soil application to paddy field; settings: paddy field soil application; active ingredient 1,000 g per 1 hectare; wettable powder added dropwise to water surface the day after sowing; examined on the 21st day after application
How it was run: (§1)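 Plants were sown in flooded (3 cm) paddy soil and evaluated for herbicidal effect 21 days after soil application in a greenhouse.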

[2] = system: Japanese bulrush (Scirpus juncoides Roxb.); test: as above; settings: paddy field soil application; active ingredient 1,000 g per 1 hectare; wettable powder added dropwise to water surface the day after sowing; examined on the 21st day after application
How it was run: as §1

[3] = system: heartshape false pickerelweed (Monochoria vaginalis (Burm.f.) C.Presl); test: as above; settings: paddy field soil application; active ingredient 1,000 g per 1 hectare; wettable powder added dropwise to water surface the day after sowing; examined on the 21st day after application
How it was run: as §1

[4] = system: green foxtail (Setaria viridis (L.) P. Beauv.); test: Test Example 2: herbicidal effect by soil application to upland field; settings: soil surface spray, upland field soil, 1,000 g active ingredient per hectare, 21st day after application
How it was run: (§2)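 Dose was 1,000 g active ingredient per hectare, applied as a wettable powder diluted in water and sprayed evenly over the soil of sown, covered pots at a 1,000 L/ha equivalent. Effect was judged by a standard scale 21 d later under greenhouse conditions.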

[5] = system: velvetleaf (Abutilon theophrasti medicus); test: as above; settings: soil surface spray, upland field soil, 1,000 g active ingredient per hectare, 21st day after application
How it was run: as §2

[6] = system: barnyardgrass (Echinochloa crus-galli (L.) P. Beauv. var. crus-galli); test: as above; settings: soil surface spray, upland field soil, 1,000 g active ingredient per hectare, 21st day after application
How it was run: as §2

[7] = system: slender amaranth (Amaranthus viridis L.); test: as above; settings: soil surface spray, upland field soil, 1,000 g active ingredient per hectare, 21st day after application
How it was run: as §2

[8] = system: green foxtail (Setaria viridis (L.) P. Beauv.); test: Test Example 3: herbicidal effect by application to upland field (foliage treatment); settings: 14th day after application; for herbicidal effect (index), Green Foxtail: foliage treatment, plants grown two weeks, 1,000 g active ingredient per hectare; for herbicidal effect, Green Foxtail: foliage treatment, 1,000 g active ingredient per 1 hectare, greenhouse
How it was run: (§3)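 Seeds went into pots of field soil and grew under glass for two weeks. The whole plant was then sprayed from above with diluted wettable powder delivering 1,000 g/ha of active ingredient. Plants stayed in the greenhouse, and injury was graded against a standard 14 days after spraying.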

[9] = system: velvetleaf (Abutilon theophrasti medicus); test: as above; settings: 14th day after application; for herbicidal effect (index), Velvetleaf: foliage treatment, plants grown two weeks, 1,000 g active ingredient per hectare; for herbicidal effect, Velvetleaf: foliage treatment, 1,000 g active ingredient per 1 hectare, greenhouse
How it was run: as §3

[10] = system: barnyardgrass (Echinochloa crus-galli (L.) P. Beauv. var. crus-galli); test: as above; settings: 14th day after application; for herbicidal effect (index), Barnyardgrass: foliage treatment, plants grown two weeks, 1,000 g active ingredient per hectare; for herbicidal effect, Barnyardgrass: foliage treatment, 1,000 g active ingredient per 1 hectare, greenhouse
How it was run: as §3

[11] = system: slender amaranth (Amaranthus viridis L.); test: as above; settings: 14th day after application; for herbicidal effect (index), Slender Amaranth: foliage treatment, plants grown two weeks, 1,000 g active ingredient per hectare; for herbicidal effect, Slender Amaranth: foliage treatment, 1,000 g active ingredient per 1 hectare, greenhouse
How it was run: as §3

O=C1CCCC(O)=C1C(=O)c1ccc(C(F)(F)F)n(-c2ccccc2F)c1=O [I-91]
herbicidal effect, Echinochloa oryzicola Vasing [1]: 5 (90% or more of herbicidal effect and crop phytotoxicity) | herbicidal effect, Scirpus juncoides Roxb. [2]: 5 (90% or more of herbicidal effect and crop phytotoxicity) | herbicidal effect, Monochoria vaginalis (Burm. f.) C. Presl [3]: 5 (90% or more of herbicidal effect and crop phytotoxicity) | herbicidal effect (index), Green Foxtail [4]: 5 (90% or more of herbicidal effect and crop phytotoxicity) | herbicidal effect (index), Velvetleaf [5]: 5 (90% or more of herbicidal effect and crop phytotoxicity) | herbicidal effect (index), Barnyardgrass [6]: 5 (90% or more of herbicidal effect and crop phytotoxicity) | herbicidal effect (index), Slender Amaranth [7]: 5 (90% or more of herbicidal effect and crop phytotoxicity) | herbicidal effect (index), Green Foxtail [8]: 4 (70 to less than 90% of herbicidal effect and crop phytotoxicity) | herbicidal effect (index), Velvetleaf [9]: 5 (90% or more of herbicidal effect and crop phytotoxicity) | herbicidal effect (index), Barnyardgrass [10]: 5 (90% or more of herbicidal effect and crop phytotoxicity) | herbicidal effect (index), Slender Amaranth [11]: 5 (90% or more of herbicidal effect and crop phytotoxicity)

COc1ccc(-n2c(C(F)(F)F)ccc(C(=O)c3cnn(C)c3O)c2=O)cc1F [IV-92]
herbicidal effect, Echinochloa oryzicola Vasing [1]: 5 (90% or more of herbicidal effect and crop phytotoxicity) | herbicidal effect, Scirpus juncoides Roxb. [2]: 5 (90% or more of herbicidal effect and crop phytotoxicity) | herbicidal effect, Monochoria vaginalis (Burm. f.) C. Presl [3]: 5 (90% or more of herbicidal effect and crop phytotoxicity) | herbicidal effect (index), Green Foxtail [4]: 5 (90% or more of herbicidal effect and crop phytotoxicity) | herbicidal effect (index), Velvetleaf [5]: 5 (90% or more of herbicidal effect and crop phytotoxicity) | herbicidal effect (index), Barnyardgrass [6]: 5 (90% or more of herbicidal effect and crop phytotoxicity) | herbicidal effect (index), Slender Amaranth [7]: 5 (90% or more of herbicidal effect and crop phytotoxicity) | herbicidal effect, Green Foxtail [8]: 4 (70 to less than 90% of herbicidal effect and crop phytotoxicity) | herbicidal effect, Velvetleaf [9]: 4 (70 to less than 90% of herbicidal effect and crop phytotoxicity) | herbicidal effect, Barnyardgrass [10]: 4 (70 to less than 90% of herbicidal effect and crop phytotoxicity) | herbicidal effect, Slender Amaranth [11]: 5 (90% or more of herbicidal effect and crop phytotoxicity)

Cn1ncc(C(=O)c2ccc(C(F)(F)F)n(C)c2=O)c1OCc1ccccc1 [IV-190]
herbicidal effect, Echinochloa oryzicola Vasing [1]: 5 (90% or more of herbicidal effect and crop phytotoxicity) | herbicidal effect, Scirpus juncoides Roxb. [2]: 5 (90% or more of herbicidal effect and crop phytotoxicity) | herbicidal effect, Monochoria vaginalis (Burm. f.) C. Presl [3]: 5 (90% or more of herbicidal effect and crop phytotoxicity) | herbicidal effect (index), Green Foxtail [4]: 5 (90% or more of herbicidal effect and crop phytotoxicity) | herbicidal effect (index), Velvetleaf [5]: 5 (90% or more of herbicidal effect and crop phytotoxicity) | herbicidal effect (index), Barnyardgrass [6]: 5 (90% or more of herbicidal effect and crop phytotoxicity) | herbicidal effect (index), Slender Amaranth [7]: 5 (90% or more of herbicidal effect and crop phytotoxicity) | herbicidal effect, Green Foxtail [8]: 4 (70 to less than 90% of herbicidal effect and crop phytotoxicity) | herbicidal effect, Velvetleaf [9]: 5 (90% or more of herbicidal effect and crop phytotoxicity) | herbicidal effect, Barnyardgrass [10]: 5 (90% or more of herbicidal effect and crop phytotoxicity) | herbicidal effect, Slender Amaranth [11]: 5 (90% or more of herbicidal effect and crop phytotoxicity)

CCCCCCn1c(C(F)(F)F)ccc(C(=O)C2=C(O)CCCC2=O)c1=O [I-9]
herbicidal effect, Echinochloa oryzicola Vasing [1]: 5 (90% or more of herbicidal effect and crop phytotoxicity) | herbicidal effect, Scirpus juncoides Roxb. [2]: 5 (90% or more of herbicidal effect and crop phytotoxicity) | herbicidal effect, Monochoria vaginalis (Burm. f.) C. Presl [3]: 5 (90% or more of herbicidal effect and crop phytotoxicity) | herbicidal effect (index), Green Foxtail [4]: 4 (70 to less than 90% of herbicidal effect and crop phytotoxicity) | herbicidal effect (index), Velvetleaf [5]: 5 (90% or more of herbicidal effect and crop phytotoxicity) | herbicidal effect (index), Barnyardgrass [6]: 4 (70 to less than 90% of herbicidal effect and crop phytotoxicity) | herbicidal effect (index), Slender Amaranth [7]: 5 (90% or more of herbicidal effect and crop phytotoxicity) | herbicidal effect (index), Green Foxtail [8]: 4 (70 to less than 90% of herbicidal effect and crop phytotoxicity) | herbicidal effect (index), Velvetleaf [9]: 5 (90% or more of herbicidal effect and crop phytotoxicity) | herbicidal effect (index), Barnyardgrass [10]: 5 (90% or more of herbicidal effect and crop phytotoxicity) | herbicidal effect (index), Slender Amaranth [11]: 5 (90% or more of herbicidal effect and crop phytotoxicity)

C[S+]([O-])CCn1c(C(F)(F)F)ccc(C(=O)C2=C(O)C3CCC(C3)C2=O)c1=O (centres unmarked) [III-29]
herbicidal effect, Echinochloa oryzicola Vasing [1]: 5 (90% or more of herbicidal effect and crop phytotoxicity) | herbicidal effect, Scirpus juncoides Roxb. [2]: 5 (90% or more of herbicidal effect and crop phytotoxicity) | herbicidal effect, Monochoria vaginalis (Burm. f.) C. Presl [3]: 5 (90% or more of herbicidal effect and crop phytotoxicity) | herbicidal effect (index), Green Foxtail [4]: 5 (90% or more of herbicidal effect and crop phytotoxicity) | herbicidal effect (index), Velvetleaf [5]: 5 (90% or more of herbicidal effect and crop phytotoxicity) | herbicidal effect (index), Barnyardgrass [6]: 5 (90% or more of herbicidal effect and crop phytotoxicity) | herbicidal effect (index), Slender Amaranth [7]: 5 (90% or more of herbicidal effect and crop phytotoxicity) | herbicidal effect, Green Foxtail [8]: 5 (90% or more of herbicidal effect and crop phytotoxicity) | herbicidal effect, Velvetleaf [9]: 5 (90% or more of herbicidal effect and crop phytotoxicity) | herbicidal effect, Barnyardgrass [10]: 5 (90% or more of herbicidal effect and crop phytotoxicity) | herbicidal effect, Slender Amaranth [11]: 5 (90% or more of herbicidal effect and crop phytotoxicity)

Cn1c(C(F)(F)F)ccc(C(=O)C2=C(Sc3ccccc3)C3CCC(C3)C2=O)c1=O (centres unmarked) [III-14]
herbicidal effect, Echinochloa oryzicola Vasing [1]: 5 (90% or more of herbicidal effect and crop phytotoxicity) | herbicidal effect, Scirpus juncoides Roxb. [2]: 5 (90% or more of herbicidal effect and crop phytotoxicity) | herbicidal effect, Monochoria vaginalis (Burm. f.) C. Presl [3]: 5 (90% or more of herbicidal effect and crop phytotoxicity) | herbicidal effect (index), Green Foxtail [4]: 4 (70 to less than 90% of herbicidal effect and crop phytotoxicity) | herbicidal effect (index), Velvetleaf [5]: 5 (90% or more of herbicidal effect and crop phytotoxicity) | herbicidal effect (index), Barnyardgrass [6]: 4 (70 to less than 90% of herbicidal effect and crop phytotoxicity) | herbicidal effect (index), Slender Amaranth [7]: 5 (90% or more of herbicidal effect and crop phytotoxicity) | herbicidal effect, Green Foxtail [8]: 5 (90% or more of herbicidal effect and crop phytotoxicity) | herbicidal effect, Velvetleaf [9]: 5 (90% or more of herbicidal effect and crop phytotoxicity) | herbicidal effect, Barnyardgrass [10]: 5 (90% or more of herbicidal effect and crop phytotoxicity) | herbicidal effect, Slender Amaranth [11]: 5 (90% or more of herbicidal effect and crop phytotoxicity)

COc1cc(-n2c(C(F)(F)F)ccc(C(=O)C3=C(O)CCCC3=O)c2=O)ccc1Cl [I-108]
herbicidal effect, Echinochloa oryzicola Vasing [1]: 5 (90% or more of herbicidal effect and crop phytotoxicity) | herbicidal effect, Scirpus juncoides Roxb. [2]: 5 (90% or more of herbicidal effect and crop phytotoxicity) | herbicidal effect, Monochoria vaginalis (Burm. f.) C. Presl [3]: 5 (90% or more of herbicidal effect and crop phytotoxicity) | herbicidal effect (index), Green Foxtail [4]: 4 (70 to less than 90% of herbicidal effect and crop phytotoxicity) | herbicidal effect (index), Velvetleaf [5]: 5 (90% or more of herbicidal effect and crop phytotoxicity) | herbicidal effect (index), Barnyardgrass [6]: 5 (90% or more of herbicidal effect and crop phytotoxicity) | herbicidal effect (index), Slender Amaranth [7]: 5 (90% or more of herbicidal effect and crop phytotoxicity) | herbicidal effect (index), Green Foxtail [8]: 5 (90% or more of herbicidal effect and crop phytotoxicity) | herbicidal effect (index), Velvetleaf [9]: 5 (90% or more of herbicidal effect and crop phytotoxicity) | herbicidal effect (index), Barnyardgrass [10]: 5 (90% or more of herbicidal effect and crop phytotoxicity) | herbicidal effect (index), Slender Amaranth [11]: 5 (90% or more of herbicidal effect and crop phytotoxicity)
